Measured values reported in patent US10369130B2, “Antibacterial compounds” (AZIENDE CHIMICHE RIUNITE ANGELINI FRANCESCO A.C.R.A.F. …, priority 2014, dated 2019).
Counter-ions that a name gives are not always drawn.

Assays:
Assay type in all cases: biochemical
Conditions in all cases: single concentration (200, 100 or 50 μM), in duplicate, versus the positive control (vehicle)
Topoisomerase IV [1] = molecular target: T1, Topoisomerase IV (Staphylococcus aureus, UniProt P0C1S7+P0C1U9); test: Topoisomerase IV decatenation assay (S. aureus)
T1 construct: purchased Inspiralis, UK
T1 sequence (P0C1S7 whole entry): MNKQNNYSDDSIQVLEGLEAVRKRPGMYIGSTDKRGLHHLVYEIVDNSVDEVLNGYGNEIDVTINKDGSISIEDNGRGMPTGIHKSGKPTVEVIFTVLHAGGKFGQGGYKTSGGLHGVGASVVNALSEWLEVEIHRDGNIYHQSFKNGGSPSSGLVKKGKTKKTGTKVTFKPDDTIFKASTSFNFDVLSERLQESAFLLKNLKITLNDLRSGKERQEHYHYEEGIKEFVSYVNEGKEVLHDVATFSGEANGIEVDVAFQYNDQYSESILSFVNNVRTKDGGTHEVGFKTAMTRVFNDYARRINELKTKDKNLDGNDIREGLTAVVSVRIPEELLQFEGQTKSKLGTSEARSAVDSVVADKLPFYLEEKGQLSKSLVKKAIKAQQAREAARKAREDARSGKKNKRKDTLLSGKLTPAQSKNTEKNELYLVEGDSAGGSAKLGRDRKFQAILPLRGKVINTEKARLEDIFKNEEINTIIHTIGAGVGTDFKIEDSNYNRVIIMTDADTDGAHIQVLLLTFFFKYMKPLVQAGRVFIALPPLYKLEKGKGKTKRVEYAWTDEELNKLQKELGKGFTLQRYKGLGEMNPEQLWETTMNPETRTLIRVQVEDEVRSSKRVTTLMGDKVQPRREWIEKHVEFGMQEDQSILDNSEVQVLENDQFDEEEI
T1 sequence (P0C1U9 whole entry): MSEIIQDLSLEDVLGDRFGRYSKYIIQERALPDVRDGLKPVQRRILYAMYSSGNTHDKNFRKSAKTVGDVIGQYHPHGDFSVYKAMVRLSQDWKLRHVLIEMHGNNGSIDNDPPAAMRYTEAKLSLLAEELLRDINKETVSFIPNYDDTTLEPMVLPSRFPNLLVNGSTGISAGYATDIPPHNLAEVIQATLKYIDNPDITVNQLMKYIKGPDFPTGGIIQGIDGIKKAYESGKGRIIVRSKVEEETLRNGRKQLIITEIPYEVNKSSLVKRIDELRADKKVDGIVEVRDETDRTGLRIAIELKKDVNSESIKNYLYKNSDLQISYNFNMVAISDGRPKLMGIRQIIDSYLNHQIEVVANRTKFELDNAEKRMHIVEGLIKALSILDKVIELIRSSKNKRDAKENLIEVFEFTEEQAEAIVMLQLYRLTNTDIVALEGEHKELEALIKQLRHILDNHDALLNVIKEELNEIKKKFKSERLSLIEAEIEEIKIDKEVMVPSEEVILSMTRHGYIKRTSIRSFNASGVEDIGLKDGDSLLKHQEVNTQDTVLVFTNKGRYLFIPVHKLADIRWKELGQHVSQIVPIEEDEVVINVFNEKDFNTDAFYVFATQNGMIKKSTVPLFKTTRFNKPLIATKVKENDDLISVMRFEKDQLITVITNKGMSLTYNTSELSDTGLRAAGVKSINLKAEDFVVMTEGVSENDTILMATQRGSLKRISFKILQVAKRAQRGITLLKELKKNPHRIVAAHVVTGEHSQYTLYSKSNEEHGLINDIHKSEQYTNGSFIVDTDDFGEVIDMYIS
Experimental: (§1) The above compounds were tested for the inhibition of the enzyme DNA gyrase in a gyrase supercoiling assay and for the inhibition of the enzyme topoisomerase IV in a decatenation assay, in both Gram positive and Gram negative bacteria, according to the following methods.
(§2) Both the assays were carried out according to a set-up method modified from the article to Blanche F, et al. “Differential Behaviors of Staphylococcus aureus and Escherichia coli Type II DNA Topoisomerases”, Antimicrob.
(§3) The compounds were screened at single concentration (200, 100 or 50 μM), in duplicate.
(§4) Ciprofloxacin and novobiocin were used as reference compounds, at single concentration of 200 and 50 μM, respectively.
(§5) Topoisomerase IV Decatenation Assay
(§6) S. aureus and E. coli Topoisomerase IV decatenation kits (Inspiralis, UK) were used. A master mix with a total volume sufficient for the number of reactions to perform was prepared with the following reagents: 5× assay buffer (50 mM HEPES-KOH (pH 7.6), 100 mM potassium glutamate, 10 mM magnesium acetate, 10 mM DTT, 1 mM ATP, 50 μg/ml albumin), kDNA substrate (200 ng/reaction), RNase-DNase free water. Aliquots of this mix were dispensed in each tube, then 10× compound stock solutions or vehicle control (DMSO), were added in each reaction tube.
(§7) Reaction was started with Topoisomerase IV enzyme (0.5 U/reaction) addition.
(§8) A sample added with an equal volume of dilution buffer was used as negative control (without enzyme).
(§9) The reaction tubes were gentle vortexed and incubated 30 minutes at 37° C. Each reaction was stopped by adding 30 μl of Stop Buffer and 30 μl of chloroform/isoamyl alcohol (24/1), briefly vortexed for 5-10 seconds and centrifuged at 20000×g for 2 minutes. Samples taken from the upper phase were loaded into 1% agarose gel and subjected to electrophoresis for 1 hour at 80V constant voltage in TAE (40 mM Tris-acetate, 2 mM EDTA).
(§10) Data acquisition and analysis. Due to the high molecular mass, kDNA could not enter an agarose gel under normal electrophoresis conditions, but remained in the wells. In the presence of Topo IV topoisomerase mini-circles (2.5 Kb) were released from kDNA by decatenation and were quickly and easily resolved in the gel at relatively high voltages.
(§11) Bands were visualized by ethidium bromide staining (dil 1:20000) for 30 minutes followed by destaining in distilled water for 10 minutes.
(§12) For single concentration screening assay, in order to evaluate the compounds activity on the enzymes, the bands of decatenated DNAs in the gel were photographed by a digital imaging system ImageQuant LAS 4000 (GE Healthcare) according to manufacturer's instructions.
(§13) The fluorescent intensity of each band was analyzed by ImageQuant TL software and it was expressed as volume (volume of the uncalibrated quantity of material in the image feature after subtraction of the background intensity by using rolling ball method).
(§14) Each band intensity was compared, as percentage, to vehicle sample band intensity, which served as positive control, on the same gel.
(§15) Inhibitory activity was expressed as percent of inhibition versus the positive control.

DNA gyrase [2] = molecular target: T2, DNA gyrase (Escherichia coli, UniProt P0AES4+P0AES6); test: DNA gyrase supercoiling assay (E. coli)
T2 construct: purchased Inspiralis, UK
T2 sequence (P0AES4 whole entry, one chain of several): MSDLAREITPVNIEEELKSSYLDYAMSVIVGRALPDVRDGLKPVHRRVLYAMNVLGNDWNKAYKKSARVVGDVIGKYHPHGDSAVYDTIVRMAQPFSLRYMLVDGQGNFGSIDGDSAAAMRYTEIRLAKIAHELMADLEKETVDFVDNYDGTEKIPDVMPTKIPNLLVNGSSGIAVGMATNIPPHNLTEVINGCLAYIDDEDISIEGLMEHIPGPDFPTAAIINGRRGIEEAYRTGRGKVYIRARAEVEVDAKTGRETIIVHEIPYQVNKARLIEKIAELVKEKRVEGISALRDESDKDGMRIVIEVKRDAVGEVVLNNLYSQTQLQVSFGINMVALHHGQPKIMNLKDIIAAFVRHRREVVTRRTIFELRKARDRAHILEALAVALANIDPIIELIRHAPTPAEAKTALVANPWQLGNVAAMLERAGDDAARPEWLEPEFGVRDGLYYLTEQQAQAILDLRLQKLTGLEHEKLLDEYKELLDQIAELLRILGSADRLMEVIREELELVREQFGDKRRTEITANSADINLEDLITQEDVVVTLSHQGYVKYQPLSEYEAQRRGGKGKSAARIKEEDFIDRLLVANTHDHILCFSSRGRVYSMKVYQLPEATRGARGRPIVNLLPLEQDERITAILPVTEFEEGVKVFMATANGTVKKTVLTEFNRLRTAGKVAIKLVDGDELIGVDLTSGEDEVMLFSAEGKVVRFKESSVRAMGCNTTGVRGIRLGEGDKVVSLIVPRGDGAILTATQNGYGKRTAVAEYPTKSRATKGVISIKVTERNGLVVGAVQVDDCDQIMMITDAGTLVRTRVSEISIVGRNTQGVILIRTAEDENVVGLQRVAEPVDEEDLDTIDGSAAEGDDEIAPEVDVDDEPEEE
Experimental: as §1, §2, §3, §4
(§16) DNA Gyrase Supercoiling Assay.
(§17) Reagents from S. aureus and E. coli Gyrase Supercoiling Assay kits (Inspiralis, UK) were used. A master mix with a total volume sufficient for the number of reactions to perform was prepared with the following reagents: 5× assay buffer, relaxed pBR322 substrate (0.5 μg/reaction), RNase-DNase free water. Aliquotes of this mix were dispensed in each tube, then 10× compound stock solutions or vehicle control (DMSO), were added to each reaction tube.
(§18) Reaction was started with E. Coli (2 U/reaction) or S. aureus (1 U/reaction) gyrase enzyme addition.
as §8
(§19) The reaction tubes were gentle vortexed and incubated 30 minutes at 37° C. Each reaction was stopped by adding 30 μl of Stop Buffer and 30 μl chloroform/isoamyl alcohol (24/1), briefly vortexed for 5-10 seconds and centrifuged at 20000×g for 2 minutes. Samples were loaded onto 1% agarose gel and subjected to electrophoresis for 1 hour at 80V constant voltage in TAE (40 mM Tris-acetate, 2 mM EDTA).
(§20) Data acquisition and analysis. Treatment of relaxed pBR322 with DNA gyrase converted the relaxed topoisomers (DNAs of different linking number) to the supercoiled form of the plasmid, which migrates faster on an agarose gel. An upper band might also be visible, which consists of open-circular (nicked) DNA which is present in the relaxed substrate but co-migrates with some of the relaxed topoisomers.
as §11
(§21) In order to evaluate the compounds activity on the enzyme, the bands of supercoiled DNAs in the gel were photographed by a digital imaging system ImageQuant LAS 4000 (GE Healthcare) according to manufacturer's instructions.
(§22) The fluorescent intensity of each band was analysed by ImageQuant TL software and it was expressed as volume (volume of the uncalibrated quantity of material in the image feature after subtraction of the background intensity by using rolling ball method).
as §14, §15

Topoisomerase IV [3] = molecular target: T3, Topoisomerase IV (Escherichia coli, UniProt P0AFI2+P20083); test: Topoisomerase IV decatenation assay (E. coli)
T3 construct: purchased Inspiralis, UK
Experimental: as §1, §2, §3, §4, §5, §6, §7, §8, §9, §10, §11, §12, §13, §14, §15

DNA gyrase [4] = molecular target: T4, DNA gyrase (Staphylococcus aureus, UniProt P0A0K8+P20831); test: DNA gyrase supercoiling assay (S. aureus)
T4 construct: purchased Inspiralis, UK
T4 sequence (P20831 whole entry): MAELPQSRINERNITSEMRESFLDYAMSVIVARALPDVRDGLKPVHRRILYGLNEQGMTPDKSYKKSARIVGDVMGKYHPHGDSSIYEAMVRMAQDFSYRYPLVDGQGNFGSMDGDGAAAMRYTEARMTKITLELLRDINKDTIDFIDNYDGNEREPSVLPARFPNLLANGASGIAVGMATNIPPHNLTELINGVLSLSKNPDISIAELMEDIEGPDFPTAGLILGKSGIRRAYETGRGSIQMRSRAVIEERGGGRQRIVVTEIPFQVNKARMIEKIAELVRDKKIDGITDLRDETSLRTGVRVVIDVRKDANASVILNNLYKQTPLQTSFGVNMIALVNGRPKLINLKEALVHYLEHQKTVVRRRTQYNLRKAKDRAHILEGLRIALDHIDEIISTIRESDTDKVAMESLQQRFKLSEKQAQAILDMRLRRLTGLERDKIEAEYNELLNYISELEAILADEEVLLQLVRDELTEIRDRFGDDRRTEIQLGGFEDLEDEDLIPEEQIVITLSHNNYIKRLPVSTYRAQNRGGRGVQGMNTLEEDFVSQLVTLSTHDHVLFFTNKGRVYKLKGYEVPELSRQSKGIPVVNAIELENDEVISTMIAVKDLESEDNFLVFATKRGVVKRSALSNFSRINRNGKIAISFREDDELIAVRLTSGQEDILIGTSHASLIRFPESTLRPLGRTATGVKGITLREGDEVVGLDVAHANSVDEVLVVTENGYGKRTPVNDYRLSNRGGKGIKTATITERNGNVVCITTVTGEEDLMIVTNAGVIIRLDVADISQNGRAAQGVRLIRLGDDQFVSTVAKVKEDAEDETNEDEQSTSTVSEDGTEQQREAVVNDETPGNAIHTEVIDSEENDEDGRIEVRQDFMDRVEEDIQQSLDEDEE
T4 sequence (P0A0K8 whole entry): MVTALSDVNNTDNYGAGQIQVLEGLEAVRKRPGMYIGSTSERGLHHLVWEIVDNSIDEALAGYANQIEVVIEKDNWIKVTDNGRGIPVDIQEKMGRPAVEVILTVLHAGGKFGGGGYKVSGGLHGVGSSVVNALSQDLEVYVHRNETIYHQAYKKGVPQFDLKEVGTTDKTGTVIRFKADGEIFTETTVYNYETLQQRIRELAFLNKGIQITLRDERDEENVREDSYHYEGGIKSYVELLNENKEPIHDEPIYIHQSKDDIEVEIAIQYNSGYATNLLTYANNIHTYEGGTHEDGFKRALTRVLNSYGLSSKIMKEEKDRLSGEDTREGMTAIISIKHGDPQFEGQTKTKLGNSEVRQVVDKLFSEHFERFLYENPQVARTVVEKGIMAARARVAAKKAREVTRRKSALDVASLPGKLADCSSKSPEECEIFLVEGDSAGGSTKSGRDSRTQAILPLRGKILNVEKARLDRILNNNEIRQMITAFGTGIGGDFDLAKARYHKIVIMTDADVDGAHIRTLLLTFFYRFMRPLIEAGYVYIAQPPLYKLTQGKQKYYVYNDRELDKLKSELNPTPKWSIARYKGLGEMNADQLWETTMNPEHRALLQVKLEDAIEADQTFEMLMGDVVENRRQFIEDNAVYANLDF
Experimental: as §1, §2, §3, §4, §16, §17, §18, §8, §19, §20, §11, §21, §22, §14, §15

Structure (SMILES)	% inhibition Topo IV (Topoisomerase IV [1])	% inhibition DNA gyrase (DNA gyrase [2])	% inhibition Topo IV (Topoisomerase IV [3])	% inhibition DNA gyrase (DNA gyrase [4])
O=C(NCCCN1CCN(c2nccc3ncccc23)CC1)c1cccnc1 [Compound 43, N-{3-[4-(1,6-naphthyridin-5-yl)piperazin-1-yl]propyl}pyridine-3-carboxamide hydrochloride]	n/a (n/a = not active)	n/a (n/a = not active)	n/a (n/a = not active)	100%
CN(CCCN1CCN(c2nccc3ccccc23)CC1)c1cc(=O)oc2ccccc12 [Compound 53, 4-[{3-[4-(isoquinolin-1-yl)piperazin-1-yl]propyl}(methyl)amino]-2H-chromen-2-one hydrochloride]	n/a (n/a = not active)	64%	n/a (n/a = not active)	57%
O=C1CN(c2nccc3ccccc23)CCN1CCCNc1cc(=O)oc2ccccc12 [Compound 71, 4-(isoquinolin-1-yl)-1-{3-[(2-oxo-2H-chromen-4-yl)amino]propyl}piperazin-2-one hydrochloride]	n/a (n/a = not active)	56%	n/a (n/a = not active)	n/a (n/a = not active)
Cc1cccc2oc(=O)cc(NCCCN3CCN(c4nccc5ccc(F)cc45)CC3)c12 [Compound 96, 4-({3-[4-(7-fluoroisoquinolin-1-yl)piperazin-1-yl]propyl}amino)-5-methyl-2H-chromen-2-one hydrochloride]	n/a (n/a = not active)	88%	n/a (n/a = not active)	91%
O=c1cc(NCCCN2CCN(c3nccc4ccc(F)cc34)CC2)c2ccc(O)cc2o1 [Compound 107, 4-({3-[4-(7-fluoroisoquinolin-1-yl)piperazin-1-yl]propyl}amino)-7-hydroxy-2H-chromen-2-one hydrochloride]	n/a (n/a = not active)	92%	n/a (n/a = not active)	74%
O=C(NCCCN1CCN(c2nccc3ccccc23)CC1)c1cc2ccoc2cn1 [Compound 42, N-{3-[4-(isoquinolin-1-yl)piperazin-1-yl]propyl}furo[2,3-c]pyridine-5-carboxamide hydrochloride]	n/a (n/a = not active)	n/a (n/a = not active)	n/a (n/a = not active)	84%
O=c1cc(NC[C@H](O)[C@@H](O)C2CCN(c3nccc4ccc(F)cc34)CC2)c2ccccc2o1 (racemic) [Compound 128, (2S,3S) and (2R,3R) 4-({3-[1-(7-fluoroisoquinolin-1-yl)piperidin-4-yl]-2,3-dihydroxypropyl}amino)-2H-chromen-2-one hydrochloride]	n/a (n/a = not active)	n/a (n/a = not active)	n/a (n/a = not active)	66%
O=c1oc2ccccc2cc1NCCCN1CCN(c2nccc3ccccc23)CC1 [Compound 87, 3-({3-[4-(isoquinolin-1-yl)piperazin-1-yl]propyl}amino)-2H-chromen-2-one hydrochloride]	n/a (n/a = not active)	79%	n/a (n/a = not active)	96%
O=c1cc(NCCCN2CCN(c3nccc4ccccc34)CC2)cc(-c2ccccc2)o1 [Compound 60, 4-({3-[4-(isoquinolin-1-yl)piperazin-1-yl]propyl}amino)-6-phenyl-2H-pyran-2-one hydrochloride]	n/a (n/a = not active)	100%	n/a (n/a = not active)	89%
C[N+]1(CCCc2nccc3ccccc23)CCC(Nc2cc(=O)oc3ccccc23)CC1 (centres unmarked) [Compound 123]	n/a (n/a = not active)	52%	n/a (n/a = not active)	n/a (n/a = not active)
O=C(NCCN1CCN(c2nccc3ccccc23)CC1)c1cc(=O)oc2ccccc12 [Compound 75, N-{2-[4-(isoquinolin-1-yl)piperazin-1-yl]ethyl}-2-oxo-2H-chromene-4-carboxamide hydrochloride]	n/a (n/a = not active)	69%	n/a (n/a = not active)	61%
COc1ccc2c(N3CCN(CCCNC(=O)c4cccnc4)CC3)nccc2c1 [Compound 36, N-{3-[4-(6-methoxyisoquinolin-1-yl)piperazin-1-yl]propyl}pyridine-3-carboxamide hydrochloride]	n/a (n/a = not active)	n/a (n/a = not active)	n/a (n/a = not active)	90%
Cc1cc2ccccc2c(N2CCN(CCCNC(=O)c3cccnc3)CC2)n1 [Compound 21, N-{3-[4-(3-methylisoquinolin-1-yl)piperazin-1-yl]propyl}pyridine-3-carboxamide hydrochloride]	n/a (n/a = not active)	n/a (n/a = not active)	n/a (n/a = not active)	67%
O=C(NCCN1CCN(c2nccc3ccccc23)CC1)c1ccccc1 [Compound 4, N-{2-[4-(isoquinolin-1-yl)piperazin-1-yl]ethyl}benzamide hydrochloride]	n/a (n/a = not active)	n/a (n/a = not active)	53%	84%
O=c1cc(OCCCN2CCN(c3nccc4ccccc34)CC2)c2ccccc2o1 [Compound 70, 4-{3-[4-(isoquinolin-1-yl)piperazin-1-yl]propoxy}-2H-chromen-2-one hydrochloride]	n/a (n/a = not active)	86%	n/a (n/a = not active)	75%
O=C(NCCCN1CCN(c2nccc3cc(F)ccc23)CC1)c1cccnc1 [Compound 45, N-{3-[4-(6-fluoroisoquinolin-1-yl)piperazin-1-yl]propyl}pyridine-3-carboxamide hydrochloride]	n/a (n/a = not active)	n/a (n/a = not active)	n/a (n/a = not active)	81%
O=C(NCCCN1CCN(c2nccc3ccccc23)CC1)c1cccnc1 [Compound 2, N-{3-[4-(isoquinolin-1-yl)piperazin-1-yl]propyl}pyridine-3-carboxamide hydrochloride]	n/a (n/a = not active)	n/a (n/a = not active)	65%	n/a (n/a = not active)
